Measurements taken from publication PMC4788259 (PLoS Neglected Tropical Diseases, 2016).

Tested on: E. multilocularis metacestodes
Test: PGI assay: phosphoglucose isomerase release from damaged metacestodes
Format: cell-based, Echinococcus multilocularis
Conditions: 10 μM, 5 days, single wells, relative to DB1127 (10 μM)
Description: The preparation of E. multilocularis metacestode material (strain H95) from intraperitoneally (i.p.) infected BALB/c mice was performed as described earlier. Metacestode vesicles were used for in vitro drug screening when they reached 2 to 4 mm in diameter.
For screening of the Malaria Box against E. multilocularis metacestodes, the PGI screening assay was applied that measures the release of the enzyme phosphoglucose isomerase (PGI) upon physical impairment of metacestodes. The screening setup was done in 24 well plates as described by Stadelmann et al. For initial screening, each drug was applied at 10 μM to metacestodes in single wells. As a positive control-drug, the dicationic diguanidino compound DB1127 (10 μM) was used and 0.1% DMSO was added as negative control. Metacestodes were cultured in the presence of the compounds for 5 days, after which PGI release was quantified exactly as stated in Stadelmann et al. […] Averages, standard deviations and EC50 values were calculated in Microsoft Excel 2010.

Row | Structure (SMILES) | PGI (% of DB1127 at 10 uM)
1 | CCOC(=O)c1ccc2[nH]c(-c3ccccc3)cc(=O)c2c1 [MMV006457] | 4.84%
2 | c1ccc2c(NCCc3c[nH]c4ccccc34)c3ccccc3nc2c1 [MMV006513] | 41.08%
3 | CCOc1ccc2nc(C)cc(Nc3ccc(Br)cc3)c2c1 [MMV006522] | 30.79%
4 | CCN(CC)CCNc1ncnc2c1[nH]c1ccc(Br)cc12 [MMV006545] | -33.20%
5 | Cc1cc(C)c2c(c1)OCN(Cc1ccccc1Cl)C2 [MMV006558] | -21.27%
6 | Clc1ccc2[nH]c3c(NCCCN4CCOCC4)ncnc3c2c1 [MMV006587] | -6.35%
7 | CCOC(=O)C1=CN(C)C=C(C(=O)OCC)C1c1cc(Br)c(OCC)c(OC)c1 [MMV006656] | 16.40%
8 | CN(C)CCNc1cc(-c2ccccc2)nc2ccccc12 [MMV006704] | -13.50%
9 | Cc1cc(N2CCN(C3CCCC3)CC2)n2c(nc3ccccc32)c1C#N [MMV006706] | -7.43%
10 | Cc1cc(=O)oc2c1ccc1oc(C(=O)c3ccccc3)c(C)c12 [MMV006753] | -7.57%
11 | CCOc1c(Br)cc(C2C(C(=O)OC)=CN(C)C=C2C(=O)OC)cc1OC [MMV006764] | -0.44%
12 | COc1cc2cc(C(=O)Nc3ccccc3)c(N)nc2cc1OC [MMV006767] | -7.82%
13 | CC(C)CCNCC(O)Cn1c2ccccc2c2ccccc21.Cl (centres unmarked) [MMV006787] | 62.04%
14 | CCCCc1c(C)nc2c(OC)cccc2c1O [MMV006820] | 1.39%
15 | COc1ccc(Nc2cc(C)nc(NCc3ccccc3)n2)cc1 [MMV006825] | 17.48%
16 | c1ccc2cc3c(Nc4ccc(N5CCOCC5)cc4)ccnc3cc2c1 [MMV006861] | -26.86%
17 | CCOC(=O)c1cnc2ccc(Cl)cc2c1NCCCN(C)C [MMV006882] | 9.75%
18 | C=CCc1c(C)nc2ccccc2c1O [MMV006913] | -48.01%
19 | O=C(Nc1ccc(-c2nc3cc(NC(=O)c4ccc(Cl)cc4)ccc3[nH]2)cc1)c1ccc(Cl)cc1 [MMV006962] | -9.85%
20 | CCOc1ccc2nc(C)cc(Nc3ccc(N(C)C)cc3)c2c1.Cl [MMV007020] | -3.98%

Row | Structure (SMILES) | PGI (% of DB1127 at 10 uM)
21 | Cc1ccc2c(C)nc(Nc3nc(C)cc(-c4ccccc4)n3)nc2c1 [MMV007041] | -2.18%
22 | CCOc1ccc(CN2CCN(CC(O)COc3ccc(OCC(O)CN4CCN(Cc5ccc(OCC)cc5)CC4)cc3)CC2)cc1 (centres unmarked) [MMV007092] | -3.58%
23 | c1ccc(/C2=N/c3ccccc3/N=C(/c3ccccc3)c3ccccc32)cc1 [MMV007113] | 13.66%
24 | CCOC(=O)c1c[nH]c2ccc(CC)cc2c1=O [MMV007116] | 80.46%
25 | Cc1ccc(N2C3c4ccccc4N(S(=O)(=O)c4ccc(C)cc4)C2c2ccccc2N3S(=O)(=O)c2ccc(C)cc2)cc1 [MMV007160] | -42.36%
26 | Cc1cc(Nc2ccc(OCc3ccccc3)cc2)nc2cc(O)ccc12 [MMV007181] | 115.72%
27 | COc1ccccc1N1C(=N)SC(=Cc2ccc(OCc3ccccc3F)cc2)C1=O [MMV007199] | -51.03%
28 | COc1ccc(OC)c(C2C3=C(CC(C)(C)CC3=O)N(c3ccc(Cl)c(Cl)c3)C3=C2C(=O)CC(C)(C)C3)c1 [MMV007208] | -12.95%
29 | Cc1cccc(N2C(=O)C3C(C2=O)C2(c4ccccc4)C(=O)C3(c3ccccc3)C(c3ccc4c(c3)OCO4)=C2c2ccc3c(c2)OCO3)c1 (centres unmarked) [MMV007228] | 7.95%
30 | COc1cc(-c2nc(-c3ccc(Sc4ccccc4)cc3)c(-c3ccccc3)[nH]2)cc(OC)c1O [MMV007273] | -7.16%
31 | Cc1ccc(F)cc1NC(=O)c1cc(Cl)ccc1Nc1ccccc1 [MMV007275] | 1.44%
32 | CCOc1ccc(Nc2ccnc3cc(Cl)ccc23)cc1 [MMV007285] | -9.06%
33 | Clc1ccc2c(N3CCCC3)ccnc2c1 [MMV007363] | -15.91%
34 | CCc1ccc(Nc2cc(C)nc3nc(C)nn23)cc1 [MMV007374] | 12.73%
35 | COc1ccc(-c2nc3cc(Cc4ccc5[nH]c(-c6ccc(OC)cc6)nc5c4)ccc3[nH]2)cc1 [MMV007384] | 61.95%
36 | Cc1ccccc1OCCSc1nc2ccc(NC(=O)c3cccs3)cc2s1 [MMV007396] | -6.56%
37 | O=C(NCc1ccco1)C1CCN(S(=O)(=O)c2ccc(Br)cc2)CC1 [MMV007430] | -0.53%
38 | COc1cc2c3cc1Oc1c(OC)c(OC)cc4c1C(Cc1ccc(O)c(c1)Oc1ccc(cc1)CC3N(C)CC2)N(C)CC4.Cl (centres unmarked) [MMV007474] | -10.35%
39 | COc1ccc(CCNC(=O)c2cc(S(=O)(=O)N3CC(C)CC(C)C3)ccc2Sc2ccc(F)cc2)cc1OC (centres unmarked) [MMV007557] | 14.98%
40 | Cc1ccc(Cn2c(N3CCC(C(=O)NCc4cccs4)CC3)nc3ccccc32)cc1 [MMV007564] | -118.82%

Row | Structure (SMILES) | PGI (% of DB1127 at 10 uM)
41 | Cc1ccc(CSCc2ccc(C(=O)NC3CC3)o2)cc1 [MMV007571] | -9.42%
42 | O=C(Nc1ccc(C23CC4CC(CC(c5ccccc5)(C4)C2)C3)cc1)c1cccs1 [MMV007574] | -11.28%
43 | Cc1ccccc1OCCSc1nc2ccc(NC(=O)c3ccccc3)cc2s1 [MMV007577] | -17.47%
44 | COc1ccc(C(=O)C(CCC(CNC(C)(C)C)C(=O)c2ccc(OC)cc2)CNC(C)(C)C)cc1 (centres unmarked) [MMV007591] | -0.71%
45 | CC(=O)NCCc1nc2ccccc2n1Cc1ccc(C(C)C)cc1 [MMV007617] | -2.63%
46 | Br.Cc1ccc(C)c(-c2csc(Nc3ccc(C)c(C)c3)n2)c1 [MMV007654] | 3.26%
47 | CCCCCCOC(=O)C1=C(C)NC(=O)NC1c1ccccc1F (centres unmarked) [MMV007686] | -24.58%
48 | COc1ccc(C(C)=O)cc1N1C(=O)C2C(C1=O)C1(c3ccccc3)C(=O)C2(c2ccccc2)C(c2ccc(C)cc2)=C1c1ccc(C)cc1 (centres unmarked) [MMV007695] | 4.56%
49 | CCCCc1c(CCC)c(=N)c2ccccc2n1C.I [MMV007764] | 29.51%
50 | CCOc1ccccc1NC(=O)CN1CCN(C(=O)c2ccco2)CC1 [MMV007791] | -28.95%
51 | COc1nc(Nc2ccc(C(C)C)cc2)nc(OC)n1 [MMV007808] | -19.50%
52 | COc1ccc2c(c1)OC(O)(C(F)(F)C(F)(F)F)CC2=O (centres unmarked) [MMV007839] | 50.23%
53 | COc1ccc2nc(C)cc(Nc3ccc(Cl)cc3)c2c1 [MMV007875] | -32.27%
54 | CCCCN(CCCC)S(=O)(=O)c1ccc(NC(=O)c2ccco2)cc1 [MMV007881] | -23.46%
55 | CCCCOc1ccc(C(=O)Nc2cc(C)on2)cc1 [MMV007906] | -15.33%
56 | Cc1ccc(Nc2nc(-c3ccccn3)cs2)cc1 [MMV007907] | -25.32%
57 | O=c1nc(C=Cc2ccc(Cl)cc2)oc2ccccc12 [MMV007977] | 41.38%
58 | CCOc1ccc(CCNC(=O)c2cccs2)cc1OCC [MMV007978] | -3.44%
59 | CN1CCN(c2c3c(c(C#N)c4nc5ccccc5n24)CCC3)CC1 [MMV008127] | -35.30%
